Measurements taken from patent publication US20250099420A1, “SMALL MOLECULE MODULATORS OF GPR139 COMPLEX” (University of Florida Research Foundation, Incorporated, priority 2022, published 2025).
Like-named read-outs stand apart in the source and are kept apart here.

What was measured:
parental HEK cells = experiment: HEK parental Agonist Counterscreen Assay (non-transfected cells); type: cell-based; conditions: for Averaged Max % Response (±St. Dev.): activity relative to known control
Excerpt: The high control for the agonist counterscreen was Forskolin not acetylcholine.

GPR139 = molecular target: T1, GPR139 (Homo sapiens, UniProt Q6DWJ6); experiment: GPR139 Agonist titration / agonist counterscreen assay (calcium detection, HEK-GPR139 cells); type: cell-based; parameters: expressed in transfected cells; host or cells: HEK Aequorin cells, Maxcyte transient transfection; conditions: GPR139 Agonist Activity; for Averaged Max % Response (±St. Dev.): activity relative to known control; for EC50: read-out: EC50
T1 sequence (Q6DWJ6 1-353): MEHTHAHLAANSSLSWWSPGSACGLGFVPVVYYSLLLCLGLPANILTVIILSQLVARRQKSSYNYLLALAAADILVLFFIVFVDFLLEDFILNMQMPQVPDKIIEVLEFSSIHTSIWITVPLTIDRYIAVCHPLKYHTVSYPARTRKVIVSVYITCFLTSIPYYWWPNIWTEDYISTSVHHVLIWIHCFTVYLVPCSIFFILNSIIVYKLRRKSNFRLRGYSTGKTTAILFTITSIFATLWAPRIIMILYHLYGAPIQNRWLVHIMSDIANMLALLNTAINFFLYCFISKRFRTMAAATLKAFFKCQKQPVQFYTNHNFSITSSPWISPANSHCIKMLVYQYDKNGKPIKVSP
Experimental: GPR activity was assessed using a calcium detection assay. […] Negative control samples were treated with DMSO. […] Intracellular calcium was measured using Calcium 5.

[1] = Homo sapiens, HEK293, HEK Agonist Activity section of Table 4 (parental HEK counterscreen)
[2] = values printed in E-notation without unit
[3] = Homo sapiens, HEK293, HEK Agonist Activity, parental non-transfected HEK cells

Structure (SMILES)	Lipophilic Efficiency (logD) (parental HEK cells; HEK Agonist Activity section)	Lipophilic Efficiency (logP) (parental HEK cells; HEK Agonist Activity section)	Averaged Max % Response (±St. Dev.) (parental HEK cells; HEK Agonist Activity section)	EC50 (parental HEK cells; [1])	Efficiency Ligand (GPR139)	Hill Slope (GPR139)	Lipophilic Efficiency (logD) (GPR139)	Lipophilic Efficiency (logP) (GPR139)	Averaged Max % Response (±St. Dev.) (GPR139)	Lipophilic Efficiency (logD) (GPR139; based on logD)	Lipophilic Efficiency (logP) (GPR139; based on logP)	Hill Slope (GPR139; fitted dose-response curve)	Efficiency Ligand (GPR139; ligand efficiency)	EC50 (GPR139; [2])	Lipophilic Efficiency (logD) (parental HEK cells; HEK Agonist Activity)	Lipophilic Efficiency (logP) (parental HEK cells; HEK Agonist Activity)	Averaged Max % Response (±St. Dev.) (parental HEK cells; HEK Agonist Activity)	also measured
COc1ccc2cc(C3(C)CC(=O)N(CC(=O)N(CC(C)C)CC(C)C)C3=O)ccc2c1 (stereo not drawn) [SR-01000054961]	1.27	1.27	6.24 ± 6.42%	> 14100 nM	0.26	0.85	2.43	2.43	79.59 ± 15.93%									
COc1cc(C(=O)NNC(=O)COc2ccc3ccccc3c2)cc(OC)c1OC [SR-01000056004]	2.56	2.55	−16.39 ± 11.45%	> 15100 nM	0.30	0.89	4.08	4.08	81.95 ± 3.88%									EC50 (GPR139; HEK-GPR139 cells): 450 nM
COc1cc(C(C)=O)ccc1OCC(=O)OCC(=O)NCCCc1ccccc1 [SR-01000056458]	2.66	2.66	19.25 ± 6.92%	> 14100 nM					119.47 ± 9.11%	5.10	5.10	0.52	0.35	50.9 nM				
CC1(c2ccc(Cl)cc2)NC(=O)N(CC(=O)NCc2cccs2)C1=O (stereo not drawn) [SR-01000058107]									95.61 ± 13.32%	5.35	5.35	0.85	0.43	23.3 nM	2.55	2.55	4.84 ± 7.51%	EC50 (parental HEK cells; [3]): > 14900 nM
CC1(c2ccc3ccccc3c2)NC(=O)C(CC(=O)NCc2ccco2)C1=O (stereo not drawn) [SR-01000058120]									103.66 ± 2.94%	4.73	4.73	0.17	0.37	40.5 nM	2.18	2.18	11.91 ± 6.77%	EC50 (parental HEK cells; [3]): > 14300 nM
O=C(CSc1ccc(Cl)cc1)NNC(=O)c1ccc(O)cc1 [SR-01000060349]									123.74 ± 9.56%	5.31	5.26	0.81	0.50	16.2 nM	2.34	2.30	36.27 ± 9.28%	EC50 (parental HEK cells; [3]): > 15100 nM
COc1ccccc1NC(=O)NNC(=O)CSc1cc(C)c(Br)cc1C [SR-01000061624]									120.81 ± 8.57%	4.01	4.00	1.00	0.43	12 nM	0.94	0.93	13.43 ± 5.07%	EC50 (parental HEK cells; [3]): > 14100 nM
CCCCNC(=O)NNC(=O)CSc1cc(C)c(Br)cc1C [SR-01000061818]									110.53 ± 3.36%	4.41	4.41	0.71	0.50	16.3 nM	1.46	1.46	3.00 ± 9.38%	EC50 (parental HEK cells; HEK Agonist Activity, parental non-transfected HEK cells): > 14500 nM
O=C(CN1CCN(C/C=C/c2ccccc2)CC1)NCCCc1ccccc1 [SR-01000062290]	1.34	1.10	11.38 ± 4.42%	> 14900 nM					128.31 ± 15.25%	3.75	3.51	0.74	0.36	58.8 nM				
C=C(CC1C(=O)CC(c2ccccc2)(c2ccccc2)C1=O)C(C)CC1=CC=CC1 (stereo not drawn) [SR-01000062305]	1.70	1.70	−4.71 ± 5.40%	> 14800 nM	0.27		2.66	2.66	121.63 ± 9.56%									
O=C(CN1C(=O)OC(O)(c2ccc(Cl)cc2Cl)C1=O)Nc1ccccc1Cl (stereo not drawn) [SR-01000062419]	0.98	0.97	19.92 ± 2.49%	> 14500 nM	0.33	0.63	2.50	2.49	105.27 ± 9.38%									EC50 (GPR139; HEK-GPR139 cells): 438 nM
O=C(CN1C(=O)NC2(CCc3ccccc3C2)C1=O)N1CCc2ccccc2C1 (stereo not drawn) [SR-01000062726]	2.40	2.40	−12.60 ± 9.55%	> 14500 nM					103.63 ± 9.70%	4.25	4.25	0.89	0.32	205 nM				
O=C(CNC(=O)c1ccc(Br)o1)NC1CCCc2ccccc21 (stereo not drawn) [SR-01000064101]	2.64	2.64	10.45 ± 2.67%	> 14900 nM	0.38	1.15	4.09	4.09	90.33 ± 2.09%									EC50 (GPR139; HEK-GPR139 cells): 527 nM
CC1(c2ccc3c(c2)OCO3)NC(=O)N(CC(=O)NC2CCCC2)C1=O (stereo not drawn) [SR-01000065547]	3.84	3.84	2.31 ± 13.81%	> 14100 nM	0.34	0.59	5.32	5.32	87.19 ± 17.95%									EC50 (GPR139; HEK-GPR139 cells): 465 nM
O=C(CCCOc1ccc(Cl)cc1Cl)NNC(=O)Cc1ccc2c(c1)OCCO2 [SR-01000065653]	1.88	1.87	−8.07 ± 6.14%						89.15 ± 7.00%	4.06	4.05	1.10	0.34	94.4 nM				EC50 (parental HEK cells; HEK Agonist Activity section of Table 4 (parental HEK counterscreen)): > 14100 nM
